From ChEMBL document CHEMBL5149969, “Amyloid-β and tau aggregation dual-inhibitors: A synthetic and structure-activity relationship focused review” (Eur J Med Chem, 2021)

Assays:
[1] = biological target: T1, Microtubule-associated protein tau (Homo sapiens, UniProt P10636); assay: Inhibition of Tau (unknown origin) expressed in Escherichia coli BL21 (DE3) at 10 uM relative to control
[2] = biological target: T2, Amyloid-beta precursor protein (Homo sapiens, UniProt P05067); assay: Inhibition of amyloid beta 42 (unknown origin) expressed in Escherichia coli BL21 (DE3) at 10 uM relative to control
[3] = biological target: T1, Microtubule-associated protein tau; assay: Inhibition of tau (unknown origin) transfected in human H4 cells incubated for 20 to 24 hrs by LPECL assay; assay type: cell-based
[4] = biological target: T1, Microtubule-associated protein tau; assay: Inhibition of tau depolymerization (unknown origin) transfected in H4 cells incubated for 20 to 24 hrs by LPECL assay; assay type: cell-based
[5] = Inhibition of amyloid beta 38 secretion transfected in human H4 cells incubated for 20 to 24 hrs by LPECL assay; assay type: cell-based
[6] = biological target: T1, Microtubule-associated protein tau; assay: Inhibition of tau aggregation (unknown origin) at 20 uM relative to control
[7] = biological target: T2, Amyloid-beta precursor protein; assay: Inhibition of amyloid beta 42 transfected in human H4 cells incubated for 20 to 24 hrs by LPECL assay; assay type: cell-based
[8] = biological target: T2, Amyloid-beta precursor protein; assay: Inhibition of amyloid beta 42 (unknown origin) at 20 uM relative to control

T1 sequence (P10636 whole entry): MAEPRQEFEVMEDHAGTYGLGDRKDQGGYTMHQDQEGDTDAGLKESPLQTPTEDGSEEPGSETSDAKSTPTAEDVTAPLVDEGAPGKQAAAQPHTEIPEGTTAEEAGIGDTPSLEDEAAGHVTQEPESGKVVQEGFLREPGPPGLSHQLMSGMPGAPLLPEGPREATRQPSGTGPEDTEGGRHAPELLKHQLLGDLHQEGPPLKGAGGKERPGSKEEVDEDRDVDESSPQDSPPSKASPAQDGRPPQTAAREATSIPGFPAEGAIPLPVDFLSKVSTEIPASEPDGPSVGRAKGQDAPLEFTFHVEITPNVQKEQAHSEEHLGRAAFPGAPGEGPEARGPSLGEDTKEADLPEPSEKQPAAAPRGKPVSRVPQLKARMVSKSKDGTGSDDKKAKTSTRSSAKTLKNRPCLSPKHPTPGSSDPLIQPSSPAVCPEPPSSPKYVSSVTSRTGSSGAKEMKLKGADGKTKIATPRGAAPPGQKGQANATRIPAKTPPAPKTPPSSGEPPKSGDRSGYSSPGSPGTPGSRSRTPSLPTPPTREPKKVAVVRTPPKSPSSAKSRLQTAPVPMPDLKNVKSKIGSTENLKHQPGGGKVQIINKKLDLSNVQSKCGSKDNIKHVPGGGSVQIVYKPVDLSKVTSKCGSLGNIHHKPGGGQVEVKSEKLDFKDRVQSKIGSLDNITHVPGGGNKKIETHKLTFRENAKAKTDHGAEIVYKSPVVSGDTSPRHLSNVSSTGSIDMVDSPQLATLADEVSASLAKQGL
T2 sequence (P05067 whole entry): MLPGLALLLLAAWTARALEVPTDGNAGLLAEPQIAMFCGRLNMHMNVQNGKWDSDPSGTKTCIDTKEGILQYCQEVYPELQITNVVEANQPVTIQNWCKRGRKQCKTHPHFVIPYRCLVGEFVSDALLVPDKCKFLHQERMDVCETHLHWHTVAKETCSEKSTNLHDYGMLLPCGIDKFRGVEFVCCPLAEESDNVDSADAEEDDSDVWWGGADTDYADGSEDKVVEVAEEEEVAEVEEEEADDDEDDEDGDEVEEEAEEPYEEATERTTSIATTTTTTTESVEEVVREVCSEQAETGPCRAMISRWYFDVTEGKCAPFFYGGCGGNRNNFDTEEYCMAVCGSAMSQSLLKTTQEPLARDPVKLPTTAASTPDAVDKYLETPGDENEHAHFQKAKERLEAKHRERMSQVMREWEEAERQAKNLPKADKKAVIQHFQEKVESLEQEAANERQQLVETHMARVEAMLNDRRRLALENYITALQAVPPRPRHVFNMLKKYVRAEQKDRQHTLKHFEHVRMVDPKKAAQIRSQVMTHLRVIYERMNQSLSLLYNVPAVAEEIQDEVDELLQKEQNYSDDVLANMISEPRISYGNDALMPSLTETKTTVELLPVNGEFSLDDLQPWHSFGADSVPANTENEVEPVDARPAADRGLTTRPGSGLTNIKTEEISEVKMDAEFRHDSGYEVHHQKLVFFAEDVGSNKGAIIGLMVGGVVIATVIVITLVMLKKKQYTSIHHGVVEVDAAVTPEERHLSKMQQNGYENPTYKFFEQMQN

| inhibition [1] [%] | inhibition [2] [%] | IC50 [3] [µM] | DC50 [4] [µM] | IC50 [5] [µM] | SMILES | further results |
| --- | --- | --- | --- | --- | --- | --- |
| 52.7 | 61.8 | – | – | – | O=S(=O)(c1ccccc1)n1ccc2c(N3CCN(CCCCCCNC4CCN(Cc5ccccc5)CC4)CC3)cccc21 | – |
| 60.2 | 66.7 | – | – | – | Cc1c(OCc2ccccc2)cccc1N1CCN(CCCCCCCCNc2c3c(nc4ccccc24)CCCC3)CC1 | – |
| – | – | > 200 | > 200 | 6.1 | COc1cc(/C=C/c2cc(/C=C/c3ccc(O)c(OC)c3)on2)ccc1O | – |
| 58.6 | 55.7 | – | – | – | Cc1c(OCc2ccccc2)cccc1N1CCN(CCNc2c3c(nc4ccccc24)CCCC3)CC1 | – |
| 64.5 | 64.9 | – | – | – | Cc1c(OCc2ccccc2)cccc1N1CCN(CCCNCc2ccccc2)CC1 | – |
| – | – | – | – | – | CN(C)c1ccc2nc3ccc(=[N+](C)C)cc-3sc2c1 | inhibition [6]: 80.1% |
| – | – | 35 | 73 | 7.7 | COc1cc(/C=C/c2cc(/C=C/c3ccc(O)c(OC)c3)n(Cc3ccccc3)n2)ccc1O | IC50 [7]: > 1 µM |
| – | – | – | – | > 20 | COc1cc(/C=C/C(=O)CC(=O)/C=C/c2ccc(O)c(OC)c2)ccc1O [CURCUMIN] | – |
| – | – | 5 | 4 | 8.1 | COc1cc(/C=C/c2cc(/C=C/c3ccc(O)c(OC)c3)n(-c3cccc([N+](=O)[O-])c3)n2)ccc1O | – |
| – | – | > 200 | > 200 | > 40 | COc1cc(/C=C/c2cc(/C=C/c3ccc(OCC(=O)OC(C)(C)C)c(OC)c3)on2)ccc1OCC(=O)OC(C)(C)C | IC50 [7]: > 1 µM |
| 70.3 | 67.4 | – | – | – | Cc1c(OCc2ccccc2)cccc1N1CCN(CCCCCCCNc2c3c(nc4ccccc24)CCCC3)CC1 | – |
| – | – | – | – | – | C[n+]1c2c(c(N)c3ccccc31)C(=O)/C(=C/c1cccc(Cl)c1)CC2 | inhibition [6]: 98.3% |
| 62.9 | 57.7 | – | – | – | c1ccc(Cn2ccc3c(N4CCN(CCCCNc5c6c(nc7ccccc57)CCCC6)CC4)cccc32)cc1 | – |
| – | – | 35 | > 200 | 6 | COc1cc(/C=C/c2cc(/C=C/c3ccc(O)c(OC)c3)n(-c3ccc(C)cc3)n2)ccc1O | IC50 [7]: > 1 µM |
| 64.8 | 64.2 | – | – | – | Cc1c(OCc2ccccc2)cccc1N1CCN(CCCCCCNCc2ccccc2)CC1 | – |
| 64 | 66.9 | – | – | – | Cc1c(OCc2ccccc2)cccc1N1CCN(CCCCCCNc2c3c(nc4ccccc24)CCCC3)CC1 | – |
| – | – | 10 | > 200 | 3.3 | COc1cc(/C=C/c2cc(/C=C/c3ccc(O)c(OC)c3)n(-c3cc(Cl)cc(Cl)c3)n2)ccc1O | – |
| – | – | 69 | 65 | 13.6 | COc1cc(/C=C/c2cc(/C=C/c3ccc(O)c(OC)c3)n(CCO)n2)ccc1O | – |

| inhibition [1] [%] | inhibition [2] [%] | IC50 [3] [µM] | DC50 [4] [µM] | IC50 [5] [µM] | SMILES | further results |
| --- | --- | --- | --- | --- | --- | --- |
| – | – | – | – | – | C[n+]1c2c(c(N)c3ccccc31)C(=O)/C(=C/c1cccc([N+](=O)[O-])c1)CC2 | inhibition [8]: 86.4%; inhibition [6]: 98.2% |
| – | – | – | – | – | C[n+]1c2c(c(N)c3ccccc31)C(=O)/C(=C/c1ccccc1)CC2 | inhibition [6]: 71.2% |
| – | – | – | – | – | Nc1c2c(nc3ccccc13)CC/C(=C\c1ccccc1)C2=O | inhibition [6]: 18.7% |
| – | – | 18 | 190 | 4.7 | COc1cc(/C=C/c2cc(/C=C/c3ccc(O)c(OC)c3)n(-c3ccc(C(C)C)cc3)n2)ccc1O | IC50 [7]: > 1 µM |
| – | – | 103 | 73 | 6.3 | COc1cc(/C=C/c2cc(/C=C/c3ccc(O)c(OC)c3)n(-c3ccccc3)n2)ccc1O | IC50 [7]: > 1 µM |
| 57.3 | 54.1 | – | – | – | Cc1c(OCc2ccccc2)cccc1N1CCN(CCNC2CCN(Cc3ccccc3)CC2)CC1 | – |
| – | – | – | – | – | C[n+]1c2c(c(N)c3ccccc31)C(=O)/C(=C/c1cccs1)CC2 | inhibition [6]: 95.3% |
| 60.2 | 55.7 | – | – | – | Cc1c(OCc2ccccc2)cccc1N1CCN(CCCNC2CCN(Cc3ccccc3)CC2)CC1 | – |
| – | – | 1.2 | 1.1 | 3.5 | COc1cc(/C=C/c2cc(/C=C/c3ccc(O)c(OC)c3)n(-c3ccc([N+](=O)[O-])cc3)n2)ccc1O | IC50 [7]: > 1 µM |
| – | – | > 200 | > 200 | > 40 | COc1cc(/C=C/c2cc(/C=C/c3ccc(OCC(=O)O)c(OC)c3)on2)ccc1OCC(=O)O | IC50 [7]: > 1 µM |
| – | – | 13 | 8 | 6.3 | COc1cc(/C=C/c2cc(/C=C/c3ccc(O)c(OC)c3)n(C)n2)ccc1O | – |
| 54.6 | 64.8 | – | – | – | O=S(=O)(c1ccccc1)n1ccc2c(N3CCN(CCN4CCN(Cc5cccc6c5ccn6Cc5ccccc5)CC4)CC3)cccc21 | – |
| – | – | – | – | – | C[n+]1c2c(c(N)c3ccccc31)C(=O)/C(=C/c1cccc3ccccc13)CC2 | inhibition [6]: 102% |
| – | – | 54 | 46 | 3.4 | COc1cc(/C=C/c2cc(/C=C/c3ccc(O)c(OC)c3)n(-c3ccc(Cl)nn3)n2)ccc1O | IC50 [7]: > 1 µM |
| 62.8 | 62 | – | – | – | Cc1c(OCc2ccccc2)cccc1N1CCN(CCCCNC2CCN(Cc3ccccc3)CC2)CC1 | – |
| – | – | – | – | – | C[n+]1c2c(c(N)c3ccccc31)C(=O)/C(=C/c1cccc(F)c1)CC2 | inhibition [6]: 86.3% |
| – | – | 34 | 17 | 5.2 | COc1cc(/C=C/c2cc(/C=C/c3ccc(O)c(OC)c3)[nH]n2)ccc1O [CURCUMIN PYRAZOLE] | IC50 [7]: 0.476 µM |
